Results as given in patent publication US20210002232A1, “HETEROCYCLIC COMPOUNDS AS FUNGICIDES” (PI INDUSTRIES LTD., priority 2018, published 2021).

Assays:
[1] = system: Phakopsora pachyrhizi; experiment: Phakopsora pachyrhizi test in soybean, preventive spray in greenhouse; type: in vivo; details: preventive spray on soybean plants, inoculated one day after treatment, compared to the untreated check, read-out: control (efficacy from disease severity rating)
[2] = system: Alternaria solani; experiment: Alternaria solani (early blight of tomato/potato) mycelial radial growth on Potato Dextrose Agar; details: 168 h, read-out: control
Experimental: Compounds were dissolved in 0.3% DMSO & then added to Potato Dextrose Agar medium just prior to dispensing it into Petri dishes. 5 ml medium with compound in the desired concentration was dispensed into 60 mm sterile petri-plates. After solidification each plate was seeded with 5 mm size mycelial disc taken form periphery of actively growing virulent culture plate. Plates were incubated in growth chambers at 25° C. temperature and 60% relative humidity for seven days and radial growth was measured.

[3] = system: Pyricularia oryzae; experiment: microbe, parasite or virus in culture; type: cell-based; details: 168 h, read-out: control

| SMILES | pest or weed control at 500 ppm [1] | inhibition of growth at 300 ppm [2] | inhibition of growth at 300 ppm [3] |
| --- | --- | --- | --- |
| O=C(Nc1ccc(F)cc1F)c1ccc(-c2cc(C(F)(F)F)on2)cc1 [Compound 57, N-(2,4-difluorophenyl)-4-(5-(trifluoromethyl)isoxazol-3-yl)benzamide] | > 90% |  |  |
| O=C(Nc1ccc(F)cc1F)c1ccc(-c2coc(C(F)(F)F)n2)cc1 [Compound 77, N-(2,4-difluorophenyl)-4-(2-(trifluoromethyl)oxazol-4-yl)benzamide] | > 90% |  |  |
| O=C(Nc1ccccc1)c1ccc(-c2coc(C(F)(F)F)n2)cc1 [Compound 81, N-phenyl-4-(2-(trifluoromethyl)oxazol-4-yl)benzamide] |  | > 70% |  |
| COc1ccc(S(C)(=O)=NC(=O)c2ccc(C3=NOC(C(F)(F)F)N3)cc2)cc1 (centres unmarked) [Compound 25, N-((4-methoxyphenyl)(methyl)(oxo)-λ^6-sulfaneylidene)-4-(5-(trifluoromethyl)-4,5-dihydro-1,2,4-oxadiazol-3-yl)benzamide] | > 90% | > 70% |  |
| CS(=O)(=NCc1ccc(-c2n[nH]c(C(F)(F)F)n2)cc1)c1cccnc1 (centres unmarked) [Compound 47, Methyl(pyridin-3-yl)((4-(5-(trifluoromethyl)-1h-1,2,4-triazol-3-yl)benzyl)imino)-λ^6-sulfanone] | > 90% |  |  |
| CN(CCOc1ccccc1)C(=O)c1ccc(-c2n[nH]c(C(F)(F)F)n2)cc1 [Compound 11, N-methyl-N-(2-phenoxyethyl)-4-(5-(trifluoromethyl)-1h-1,2,4-triazol-3-yl)benzamide] |  | > 70% |  |
| CS(=O)(=NC(=O)c1ccc(-c2coc(C(F)(F)F)n2)cc1)c1ccc(Cl)cc1 (centres unmarked) [Compound 72, N-((4-chlorophenyl)(methyl)(oxo)-λ^6-sulfaneylidene)-4-(2-(trifluoromethyl)oxazol-4-yl)benzamide] | > 90% |  |  |
| O=C(Cc1ccccc1)Nc1ccc(-c2noc(C(F)F)n2)cc1 [Compound 31, N-(4-(5-(difluoromethyl)-1,2,4-oxadiazol-3-yl)phenyl)-2-phenylacetamide] |  | > 70% |  |
| CN(Cc1ccc(C2=NOC(C(F)(F)F)N2)cc1)C(=O)C1CCC1 (centres unmarked) [Compound 22, N-methyl-N-(4-(5-(trifluoromethyl)-4,5-dihydro-1,2,4-oxadiazol-3-yl)benzyl)cyclobutanecarboxamide] | > 90% |  |  |
| Cn1nc(C(F)(F)F)nc1-c1ccc(S(=O)(=O)c2ccccc2)cc1 [Compound 34, 1-methyl-5-(4-(phenylsulfonyl)phenyl)-3-(trifluoromethyl)-1h-1,2,4-triazole] | > 90% |  |  |
| CN(CCOc1ccccc1)C(=O)c1ccc(-c2nc(C(F)(F)F)oc2Cl)cc1 [Compound 71, 4-(5-chloro-2-(trifluoromethyl)oxazol-4-yl)-N-methyl-N-(2-phenoxyethyl)benzamide] | > 90% |  |  |
| CN(Cc1ccc(C2=NOC(C(F)(F)F)N2)cc1)C(=O)C1CC1 (centres unmarked) [Compound 21, N-methyl-N-(4-(5-(trifluoromethyl)-4,5-dihydro-1,2,4-oxadiazol-3-yl)benzyl)cyclopropanecarboxamide] | > 90% |  |  |
| CC(C)(C)C(=O)NCc1ccc(-c2n[nH]c(C(F)(F)F)n2)cc1 [Compound 3, N-(4-(5-(trifluoromethyl)-1h-1,2,4-triazol-3-yl)benzyl)pivalamide] | > 90% |  |  |
| CS(=O)(=NC(=O)c1ccc(-c2coc(C(F)(F)F)n2)cc1)c1ccc(F)cc1 (centres unmarked) [Compound 69, N-((4-fluorophenyl)(methyl)(oxo)-λ^6-sulfaneylidene)-4-(2-(trifluoromethyl)oxazol-4-yl)benzamide] | > 90% |  |  |
| O=C(Nc1ccc(F)cc1F)c1ccc(-c2nc(C(F)(F)F)n[nH]2)cc1 [Compound 44, N-(2,4-difluorophenyl)-4-(3-(trifluoromethyl)-1h-1,2,4-triazol-5-yl)benzamide] | > 90% |  |  |
| O=C(Cc1ccccc1)Nc1ccc(C2=NOC(C(F)(F)F)N2)cc1 (centres unmarked) [Compound 23, 2-phenyl-N-(4-(5-(trifluoromethyl)-4,5-dihydro-1,2,4-oxadiazol-3-yl)phenyl)acetamide] | > 90% |  |  |
| O=C(Nc1ccc(Cl)cc1F)c1ccc(C2=NOC(C(F)(F)F)N2)cc1 (centres unmarked) [Compound 29, N-(4-chloro-2-fluorophenyl)-4-(5-(trifluoromethyl)-4,5-dihydro-1,2,4-oxadiazol-3-yl)benzamide] | > 90% |  |  |
| CS(=O)(=NC(=O)c1ccc(-c2coc(C(F)(F)F)n2)cc1)c1ccccc1F (centres unmarked) [Compound 84, N-((2-fluorophenyl)(methyl)(oxo)-λ^6-sulfaneylidene)-4-(2-(trifluoromethyl)oxazol-4-yl)benzamide] |  | > 70% | > 70% |
| COc1ccc(S(C)(=O)=Nc2ccc(-c3n[nH]c(C(F)(F)F)n3)cc2)cc1 (centres unmarked) [Compound 43, (4-methyoxyphenyl)(methyl)((4-(5-(trifluoromethyl)-1h-1,2,4-triazol-3-yl)phenyl)imino)-λ^6-sulfanone] | > 90% |  |  |

| SMILES | pest or weed control at 500 ppm [1] | inhibition of growth at 300 ppm [2] | inhibition of growth at 300 ppm [3] |
| --- | --- | --- | --- |
| CS(=O)(=NC(=O)c1ccc(-c2cc(C(F)(F)F)on2)cc1)c1ccccc1 (centres unmarked) [Compound 66, N-(methyl(oxo)(phenyl)-λ^6-sulfaneylidene)-4-(5-(trifluoromethyl)isoxazol-3-yl)benzamide] | > 90% |  |  |
| CS(=O)(=Nc1ccc(-c2n[nH]c(C(F)(F)F)n2)cc1)c1ccc(C(F)(F)F)cc1 (centres unmarked) [Compound 40, Methyl((4-(5-(trifluoromethyl)-1h-1,2,4-triazol-3-yl)phenyl)imino)(4-(trifluoromethyl)phenyl)-λ^6-sulfanone] | > 90% |  |  |
| COc1ccc(S(C)(=O)=NC(=O)c2ccc(-c3coc(C(F)(F)F)n3)cc2)cc1 (centres unmarked) [Compound 78, N-((4-methoxyphenyl)(methyl)(oxo)-λ^6-sulfaneylidene)-4-(2-(trifluoromethyl)oxazol-4-yl)benzamide] |  | > 70% |  |
| CS(=O)(=NC(=O)c1ccc(-c2cc(C(F)(F)F)on2)cc1)c1ccccn1 (centres unmarked) [Compound 62, N-(methyl(oxo)(pyridin-2-yl)-λ^6-sulfaneylidene)-4-(5-(trifluoromethyl)isoxazol-3-yl)benzamide] |  | > 70% |  |
| CC(C(=O)Nc1ccc(C2=NOC(C(F)(F)F)N2)cc1)c1ccccc1 (centres unmarked) [Compound 20, 2-phenyl-N-(4-(5-(trifluoromethyl)-4,5-dihydro-1,2,4-oxadiazol-3-yl)phenyl)propanamide] | > 90% |  |  |
| CN(CCOc1ccccc1)C(=O)c1ccc(-c2cc(C(F)(F)F)on2)cc1 [Compound 65, N-methyl-N-(2-phenoxyethyl)-4-(5-(trifluoromethyl)isoxazol-3-yl)benzamide] | > 90% |  |  |
| CN(CCOc1ccccc1)C(=O)c1ccc(-c2noc(C(F)F)n2)cc1 [Compound 17, 4-(5-(difluoromethyl)-1,2,4-oxadiazol-3-yl)-N-methyl-N-(2-phenoxyethyl)benzamide] |  |  | > 70% |
| CS(=O)(=NCc1ccc(-c2nc(C(F)F)n[nH]2)cc1)c1ccccc1 (centres unmarked) [Compound 42, ((4-(3-(difluoromethyl)-1h-1,2,4-triazol-5-yl)benzyl)imino)(methyl)(phenyl)-λ^6-sulfanone] |  |  | > 70% |
| CS(=O)(=NC(=O)c1ccc(-c2coc(C(F)(F)F)n2)cc1)c1ccccc1 (centres unmarked) [Compound 83, N-(methyl(oxo)(phenyl)-λ^6-sulfaneylidene)-4-(2-(trifluoromethyl)oxazol-4-yl)benzamide] | > 90% |  |  |
| CN(Cc1ccc(-c2n[nH]c(C(F)(F)F)n2)cc1)C(=O)C1CCC1 [Compound 38, N-methyl-N-(4-(5-(trifluoromethyl)-1h-1,2,4-triazol-3-yl)benzyl)cyclobutanecarboxamide] |  | > 70% |  |
| O=C(Nc1ccc(F)cc1F)c1ccc(-c2nc(C(F)(F)F)oc2Cl)cc1 [Compound 70, 4-(5-chloro-2-(trifluoromethyl)oxazol-4-yl)-N-(2,4-difluorophenyl)benzamide] | > 90% |  |  |
| CN(Cc1ccc(-c2n[nH]c(C(F)(F)F)n2)cc1)C(=O)C1CC1 [Compound 37, N-methyl-N-(4-(5-(trifluoromethyl)-1h-1,2,4-triazol-3-yl)benzyl)cyclopropanecarboxamide] |  | > 70% |  |
| CS(=O)(=NC(=O)c1ccc(-c2nc(C(F)(F)F)oc2Cl)cc1)c1ccccc1 (centres unmarked) [Compound 74, 4-(5-chloro-2-(trifluoromethyl)oxazol-4-yl)-N-(methyl(oxo)(phenyl)-λ^6-sulfaneylidene)benzamide] | > 90% |  |  |
| CS(=O)(=Nc1ccc(C2=NOC(C(F)(F)F)N2)cc1)c1ccc(C(F)(F)F)cc1 (centres unmarked) [Compound 26, Methyl((4-(5-(trifluoromethyl)-4,5-dihydro-1,2,4-oxadiazol-3-yl)phenyl)imino)(4-(trifluoromethyl)phenyl)-λ^6-sulfanone] |  | > 70% |  |
| CS(=O)(=NC(=O)c1ccc(C2=NOC(C(F)(F)F)N2)cc1)c1ccc(Cl)cc1 (centres unmarked) [Compound 1, N-((4-chlorophenyl)(methyl)(oxo)-λ^6-sulfaneylidene)-4-(5-(trifluoromethyl)-4,5-dihydro-1,2,4-oxadiazol-3-yl)benzamide] | > 90% |  | > 70% |
| O=C(Nc1c(F)cccc1F)c1ccc(-c2coc(C(F)(F)F)n2)cc1 [Compound 80, N-(2,6-difluorophenyl)-4-(2-(trifluoromethyl)oxazol-4-yl)benzamide] | > 90% |  |  |
| O=C(O)c1ccc(-c2cc(C(F)(F)F)on2)cc1 [Compound 56, 4-(5-(trifluoromethyl)isoxazol-3-yl)benzoic acid] | > 90% | > 70% |  |
| CS(=O)(=NCc1ccc(C2=NOC(C(F)F)N2)cc1)c1ccccc1 (centres unmarked) [Compound 27, ((4-(5-(difluoromethyl)-4,5-dihydro-1,2,4-oxadiazol-3-yl)benzyl)imino)(methyl)(phenyl)-λ^6-sulfanone] |  |  | > 70% |
